Experimental data published in PMC8945229, “Development and Biological Characterization of a Novel Selective TrkA Agonist with Neuroprotective Properties against Amyloid Toxicity” (Biomedicines, 2022).

Tests used:
[1] = test system: CYP1A2, CYP2A6, CYP2B6, CYP2C9, CYP2C19, CYP2D6 and CYP3A4; assay: CYP450 catalytic and metabolic activity, seven isoforms; format: in vitro ADME, human; details: 1 μM
Protocol: Baculosomes® expressing CYP1A2, CYP2A6, CYP2B6, CYP2C9, CYP2C19, CYP2D6 and CYP3A4 human CYP450 isoenzymes were purchased from Thermo Fisher Scientific (Waltham, MA, USA). All reagents were handled and prepared according to the manufacturer’s protocol. ENT-A013 was tested at 1 μM. Enzymatic activity in the presence of ΕΝΤ-A013 was assessed based on the kinetic model for CYP1A2, CYP2A6, CYP2B6, CYP2C9, CYP2C19, CYP2D6 and CYP3A4 isoforms. Reactions took place in triplicates at 20 °C. Glucose-6-phosphate at 333 mM and glucose-6-phosphate-dehydrogenase at 30 U/mL in 100 mM potassium phosphate, pH 8.0 (regeneration system) converted NADP^+ (10 mM in 100 mM potassium phosphate, pH 8.0) into NADPH to initiate the CYP450 reaction. Upon the addition of the fluorescent substrate, immediately (<2 min), the fluorescence signal was monitored over time at suitable excitation and emission wavelengths by Lionheart FX (BioTek, Winooski, VT, USA) (Table S2). CYP450 inhibition (%) was determined based on the reaction rates (fluorescence intensity changes per unit time). A total of n = 60 measurements per minute were acquired for a total time of t = 60 min. % Inhibition= (1 − X/A) × 100%(1) where: X is the rate observed in the presence of test-compound; A is the rate observed in the presence of negative (solvent, DMSO) control.

[2] = test system: Primary Dorsal Root Ganglia (DRG) neurons; assay: Neurite outgrowth assay in primary DRG neurons without NGF; format: cell-based, mouse; details: 500 nM every 48 h, 5 DIV, NGF-neutralizing antibody
Protocol: Primary Dorsal Root Ganglia (DRG) neurons were isolated from P0-P1 mouse pups (C57BL/6J, The Jackson Laboratory, Bar Harbor, ME, USA) as described previously and cultured with Neurobasal medium (21103049 Gibco, Grand Island, NY, USA) containing 2% B27 (17504044, Gibco, Grand Island, NY, USA), 100 ng/mL NGF (N-100, Alomone Labs, Jerusalem, Israel), 1X GlutaMax (35050061, Gibco, Grand Island, NY, USA), 10 mM HEPES (15630080, Gibco, Grand Island, NY, USA), 1% Penicillin/Streptomycin (15070063, Gibco, Grand Island, NY, USA) and 10 μM 5-Fluoro-2′-deoxyuridine (343333, Calbiochem, Darmstadt, Germany). For TUNEL assay, cells were cultured for 14 days in vitro and then the medium was deprived of NGF before adding ENT-A013 (500 nM, every 24 h) along with NGF-neutralizing antibody (N8773, 1:500, Sigma-Aldrich, St. Louis, MO, USA). Cells were then incubated for 48 h before being fixed with 4% PFA and labelled with TUNEL (11684795910, F. Hoffmann–La Roche Ltd., Basel, Switzerland) following the manufacturer’s protocol. Subsequently, cells were immunostained against Tuj1 (1:2000, 801201, Biolegend, Inc., San Diego, CA, USA) and anti-mouse Cy3 (1:1000, Invitrogen, A10521, Waltham, MA, USA) and imaged with a Leica SP8 confocal microscope. […] Cells were then imaged by confocal microscopy and neurite length was measured using Fiji software (NIH, Bethesda, Maryland, USA).

Akt and Erk1/2 = Akt and Erk1/2 phosphorylation in NIH-3T3 cells transfected with TrkB or TrkC; format: cell-based; details: 500 nM, 30′
Protocol: cells were stably transfected with TrkB and treated with ENT-A013 (500nM) or BDNF (500ng/ml) for 30’ and then subjected to Western Blot against phosphorylated TrkB and […]
either TrkB or Akt by ENT-A013. (C) NIH-3T3 cells were stably transfected with TrkC and (1 picture or pasted object on this page, not shown here) […]
(§1) treated with ENT-A013 (500nM) or Neurotrophin-3 (100ng/ml) for 30’ and then subjected to Western Blot against phosphorylated TrkC, Akt and Erk1/2. […]
(§2) phosphorylated any of those. (D) CellTox assay was performed in NIH-3T3-TrkB cells that were starved from serum and treated with ENT-A013 or BDNF for 24hrs. Quantification (E) […]
(§3) negative control (Serum Free).
(§4) Supplementary Figure S3: Primary DRG neurons were cultured in the presence of ENT-A013 (500nM, supplemented every 48hrs) and a neutralizing antibody against NGF for 5 days and then neurite length was measured by immunostaining against Tuj1 .
(§5) Supplementary Figure S4: Primary hippocampal neurons at 14-16 DIV were treated with oligomeric Aβ and in the presence of ENT-A013 (500nM, supplemented every 24hrs) for 48hrs and then were subjected to Western Blot against phosphorylated JNK. A representative blot […]

NIH-3T3-TrkB cells = assay: CellTox assay in serum-starved NIH-3T3-TrkB cells; format: cell-based; details: 24hrs
Protocol: as §1, §2, §3, §4, §5

Q: Which “enzyme (catalytic) activity of the seven major CYP450s” value ([1]; relative fluorescence of product) does the source give for CC12CCC(O)CC1=CCC1C2CCC2(C)C1CCC21CC1C=CBr [ENT-A013, (2′R,3S,17S)-2′-(2-Bromovinyl)-5-Androstene-17,1′-Cyclopropan-3-ol] here?
A: did not decrease the enzyme (catalytic) activity

Q: What about the “CYP450 (%) metabolic activity, residual % of time zero (in words)” value ([1]; t = 0 to t = 60 min) of the same compound?
A: overall metabolically stable

Q: And the “axonal / neurite length (in words)” value [2]?
A: this difference was not significant

Q: And the “Akt phosphorylation (in words)” value (Akt and Erk1/2; NIH-3T3 TrkB cells)?
A: no significant difference in the phosphorylation

Q: And the “Akt and Erk1/2 phosphorylation (in words)” value (Akt and Erk1/2; NIH-3T3 TrkC cells)?
A: failed to

Q: What about the “cell death vs negative control (Serum Free) (in words)” value (NIH-3T3-TrkB cells) of the same compound?
A: no significant difference
